Experiments:
Type in all cases: biochemical
[1] = target: T1, Human JAK1 (Homo sapiens, UniProt P23458); experiment: In-vitro kinase inhibition test, JAK1; details: for inhibition at 1 µM: compound at 1 uM, read-out: JAK1 kinase-phosphorylation inhibitory level (% inhibition); for JAK1/JAK2: ratio of % inhibition of JAK1 to JAK2 at 1 uM
T1 construct: purchased Millipore, Germany

[2] = target: T2, Human JAK2 (Homo sapiens, UniProt O60674); experiment: In-vitro kinase inhibition test, JAK2; details: compound at 1 uM; read-out: JAK2 kinase-phosphorylation inhibitory level (% inhibition)
T2 construct: purchased Millipore, Germany
T2 sequence (O60674 whole entry): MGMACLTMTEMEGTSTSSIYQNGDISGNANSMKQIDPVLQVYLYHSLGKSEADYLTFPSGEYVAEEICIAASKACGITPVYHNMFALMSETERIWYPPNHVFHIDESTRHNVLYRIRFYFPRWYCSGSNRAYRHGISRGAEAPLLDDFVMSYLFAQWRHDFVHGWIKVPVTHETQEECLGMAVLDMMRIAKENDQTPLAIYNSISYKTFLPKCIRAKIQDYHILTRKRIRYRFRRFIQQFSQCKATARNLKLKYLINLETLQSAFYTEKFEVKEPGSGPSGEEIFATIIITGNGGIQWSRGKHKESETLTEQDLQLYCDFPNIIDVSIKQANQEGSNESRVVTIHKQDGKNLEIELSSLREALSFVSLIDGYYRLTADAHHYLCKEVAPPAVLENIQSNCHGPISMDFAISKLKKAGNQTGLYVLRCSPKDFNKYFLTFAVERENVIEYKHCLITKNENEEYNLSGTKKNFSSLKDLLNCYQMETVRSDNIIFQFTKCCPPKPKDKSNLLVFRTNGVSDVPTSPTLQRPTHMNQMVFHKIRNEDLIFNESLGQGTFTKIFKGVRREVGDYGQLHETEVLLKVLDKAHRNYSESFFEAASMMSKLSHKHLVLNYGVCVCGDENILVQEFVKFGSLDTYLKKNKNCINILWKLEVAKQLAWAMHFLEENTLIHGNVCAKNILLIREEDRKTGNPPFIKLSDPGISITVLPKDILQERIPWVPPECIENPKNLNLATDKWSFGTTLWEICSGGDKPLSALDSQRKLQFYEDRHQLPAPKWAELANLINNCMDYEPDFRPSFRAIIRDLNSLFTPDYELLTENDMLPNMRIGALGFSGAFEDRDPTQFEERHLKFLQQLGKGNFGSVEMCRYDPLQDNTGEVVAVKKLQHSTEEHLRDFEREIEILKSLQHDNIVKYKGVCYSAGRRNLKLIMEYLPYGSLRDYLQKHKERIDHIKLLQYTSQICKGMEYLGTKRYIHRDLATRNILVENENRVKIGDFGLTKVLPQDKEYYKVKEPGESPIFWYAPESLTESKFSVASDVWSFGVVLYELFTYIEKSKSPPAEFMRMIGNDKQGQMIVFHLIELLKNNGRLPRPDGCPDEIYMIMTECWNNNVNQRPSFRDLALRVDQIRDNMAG
Experimental: (§1) Human-derived JAK1, JAK2, JAK3 and TYK2 (Millipore, Germany) were used as kinases. Each kinase was diluted with an appropriate buffer as described below, and then mixed with reaction reagents.
(§2) 3-morpholinopropane-1-sulfonic acid (MOPS) and EDTA were dissolved in deionized water at a concentration of 20 mM and 1 mM, respectively, and then 100 μL of β-mercaptoethanol, 10 μL of Brij-35™, 5 mL of glycerol, and 100 mg of bovine serum albumin (BSA), each per 100 mL of the solution, were added to the solution, thereby preparing a dilution buffer for JAK2, JAK3, and TYK2.
(§3) Each compound was dissolved in a 100%-DMSO solution at a concentration of about 50 μM. This prepared solution was reacted with reaction reagents in each well of a 96-well plate until a final concentration of the compound reached 1 μM. A detailed experimental method for each kinase is as follows.
(§4) After reaction for about 40 minutes at room temperature, the reaction was stopped by adding 5 uL of a 3% (v/v) phosphoric acid solution.
(§5) The inhibitory levels (% inhibition) represent a percentage of reduction in phosphorylation activity in each test group with respect to the phosphorylation activity of a corresponding kinase in a negative control group lacking any of the compounds synthesized in the examples. % inhibition=[(Scintillation value of Test compound non-treatment group−Scintillation value of Test compound treatment group)/(Scintillation value of Test compound non-treatment group)]×100

[3] = target: T3, Human JAK3 (Homo sapiens, UniProt P52333); experiment: In-vitro kinase inhibition test, JAK3; details: compound at 1 uM; read-out: JAK3 kinase-phosphorylation inhibitory level (% inhibition)
T3 construct: purchased Millipore, Germany
T3 sequence (P52333 1-1124): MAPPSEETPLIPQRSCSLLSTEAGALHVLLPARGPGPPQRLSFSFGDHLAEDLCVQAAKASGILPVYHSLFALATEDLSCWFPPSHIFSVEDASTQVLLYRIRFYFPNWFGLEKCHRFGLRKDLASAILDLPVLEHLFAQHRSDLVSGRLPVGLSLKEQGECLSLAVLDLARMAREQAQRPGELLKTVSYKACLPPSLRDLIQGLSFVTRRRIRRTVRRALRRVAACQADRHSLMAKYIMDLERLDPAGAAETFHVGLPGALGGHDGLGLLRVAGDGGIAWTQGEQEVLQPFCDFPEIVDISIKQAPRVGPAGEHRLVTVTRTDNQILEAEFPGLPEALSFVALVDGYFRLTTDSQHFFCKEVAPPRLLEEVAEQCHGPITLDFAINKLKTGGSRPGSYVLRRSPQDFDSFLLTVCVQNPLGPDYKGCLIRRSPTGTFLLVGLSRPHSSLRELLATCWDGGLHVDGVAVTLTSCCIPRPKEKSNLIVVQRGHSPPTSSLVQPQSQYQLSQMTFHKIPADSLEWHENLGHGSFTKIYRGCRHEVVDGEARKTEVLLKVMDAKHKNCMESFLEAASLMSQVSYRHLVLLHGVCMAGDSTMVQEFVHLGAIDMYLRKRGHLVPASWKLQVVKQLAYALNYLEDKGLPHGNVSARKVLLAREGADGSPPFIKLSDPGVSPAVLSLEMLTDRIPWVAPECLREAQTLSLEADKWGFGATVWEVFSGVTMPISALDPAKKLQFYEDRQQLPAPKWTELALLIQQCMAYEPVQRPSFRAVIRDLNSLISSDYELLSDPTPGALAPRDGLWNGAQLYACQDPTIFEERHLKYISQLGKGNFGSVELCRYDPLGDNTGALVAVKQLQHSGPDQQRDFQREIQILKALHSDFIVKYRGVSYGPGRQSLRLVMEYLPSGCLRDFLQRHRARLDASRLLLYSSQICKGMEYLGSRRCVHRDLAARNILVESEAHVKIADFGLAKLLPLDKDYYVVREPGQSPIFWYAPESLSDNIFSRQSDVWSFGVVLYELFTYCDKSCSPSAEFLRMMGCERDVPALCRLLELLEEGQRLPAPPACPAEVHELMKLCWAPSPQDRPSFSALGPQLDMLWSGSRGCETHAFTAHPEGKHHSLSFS

[4] = target: T4, Human TYK2 (Homo sapiens, UniProt P29597); experiment: In-vitro kinase inhibition test, TYK2; details: compound at 1 uM; read-out: TYK2 kinase-phosphorylation inhibitory level (% inhibition)
T4 construct: purchased Millipore, Germany
T4 sequence (P29597 whole entry): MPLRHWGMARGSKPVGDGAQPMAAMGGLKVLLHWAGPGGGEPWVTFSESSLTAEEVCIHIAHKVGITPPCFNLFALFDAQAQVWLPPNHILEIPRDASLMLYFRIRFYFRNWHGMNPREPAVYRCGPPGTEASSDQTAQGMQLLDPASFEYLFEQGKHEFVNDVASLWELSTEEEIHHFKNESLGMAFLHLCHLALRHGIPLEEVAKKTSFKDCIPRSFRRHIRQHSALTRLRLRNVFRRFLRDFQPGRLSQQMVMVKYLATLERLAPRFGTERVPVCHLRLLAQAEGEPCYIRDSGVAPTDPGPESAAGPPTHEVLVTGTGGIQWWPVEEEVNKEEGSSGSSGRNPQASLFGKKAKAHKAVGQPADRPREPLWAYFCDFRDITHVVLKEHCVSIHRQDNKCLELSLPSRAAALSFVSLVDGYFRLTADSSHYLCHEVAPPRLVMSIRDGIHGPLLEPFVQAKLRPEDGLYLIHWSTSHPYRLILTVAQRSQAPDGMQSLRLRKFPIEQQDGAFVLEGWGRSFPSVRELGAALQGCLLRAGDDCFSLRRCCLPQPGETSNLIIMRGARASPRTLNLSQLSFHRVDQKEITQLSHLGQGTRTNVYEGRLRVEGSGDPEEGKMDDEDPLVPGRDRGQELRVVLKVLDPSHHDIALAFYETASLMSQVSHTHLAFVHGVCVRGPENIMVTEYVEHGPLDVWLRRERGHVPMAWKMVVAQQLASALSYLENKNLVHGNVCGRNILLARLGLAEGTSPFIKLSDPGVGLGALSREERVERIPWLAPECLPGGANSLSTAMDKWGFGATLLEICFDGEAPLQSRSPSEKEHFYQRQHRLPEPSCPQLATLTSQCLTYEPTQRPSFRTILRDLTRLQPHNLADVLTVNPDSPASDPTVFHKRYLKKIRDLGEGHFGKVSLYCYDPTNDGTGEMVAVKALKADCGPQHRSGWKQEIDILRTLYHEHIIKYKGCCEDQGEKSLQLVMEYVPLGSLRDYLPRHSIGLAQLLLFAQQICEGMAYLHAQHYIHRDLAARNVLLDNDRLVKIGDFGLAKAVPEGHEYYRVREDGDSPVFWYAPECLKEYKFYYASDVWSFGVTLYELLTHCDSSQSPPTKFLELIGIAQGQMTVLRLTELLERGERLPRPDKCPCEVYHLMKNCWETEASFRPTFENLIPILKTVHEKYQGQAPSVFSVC
Experimental: as §1, §2, §3, §4, §5

T1 sequence (P23458 whole entry): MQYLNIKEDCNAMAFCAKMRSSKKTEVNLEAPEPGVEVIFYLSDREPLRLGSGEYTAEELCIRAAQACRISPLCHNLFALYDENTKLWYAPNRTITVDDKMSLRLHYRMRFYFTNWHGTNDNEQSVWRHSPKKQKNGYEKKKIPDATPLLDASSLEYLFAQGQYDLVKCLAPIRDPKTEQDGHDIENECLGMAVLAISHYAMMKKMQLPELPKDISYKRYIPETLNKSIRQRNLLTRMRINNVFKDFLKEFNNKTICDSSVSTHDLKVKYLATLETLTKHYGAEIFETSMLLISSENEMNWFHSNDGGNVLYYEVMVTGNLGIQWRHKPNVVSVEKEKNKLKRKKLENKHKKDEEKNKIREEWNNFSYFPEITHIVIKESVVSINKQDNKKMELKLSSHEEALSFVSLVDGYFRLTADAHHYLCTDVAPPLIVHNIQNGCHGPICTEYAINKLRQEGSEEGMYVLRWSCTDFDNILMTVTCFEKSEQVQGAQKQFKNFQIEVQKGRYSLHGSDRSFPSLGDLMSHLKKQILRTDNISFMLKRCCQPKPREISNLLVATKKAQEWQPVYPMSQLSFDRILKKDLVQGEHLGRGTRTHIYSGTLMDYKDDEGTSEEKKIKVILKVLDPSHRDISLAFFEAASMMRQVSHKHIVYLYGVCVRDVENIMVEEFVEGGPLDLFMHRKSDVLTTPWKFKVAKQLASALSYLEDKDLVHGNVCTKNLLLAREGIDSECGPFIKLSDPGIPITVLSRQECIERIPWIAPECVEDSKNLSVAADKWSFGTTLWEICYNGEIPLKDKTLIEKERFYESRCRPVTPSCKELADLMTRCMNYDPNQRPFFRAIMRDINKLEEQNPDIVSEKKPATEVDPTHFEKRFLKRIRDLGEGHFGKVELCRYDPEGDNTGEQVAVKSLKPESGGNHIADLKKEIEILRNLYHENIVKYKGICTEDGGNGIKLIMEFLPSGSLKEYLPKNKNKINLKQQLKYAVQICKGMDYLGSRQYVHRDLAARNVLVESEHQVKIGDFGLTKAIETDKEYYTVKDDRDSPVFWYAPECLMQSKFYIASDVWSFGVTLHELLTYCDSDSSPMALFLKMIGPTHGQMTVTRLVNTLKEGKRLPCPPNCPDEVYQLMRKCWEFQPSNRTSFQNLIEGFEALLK

Compound	inhibition at 1 µM [1]	inhibition at 1 µM [2]	inhibition at 1 µM [3]	JAK1/JAK2 [1]	inhibition at 1 µM [4]
CN(c1ncnc2[nH]ccc12)[C@@H]1CCN(C(=O)CC#N)C1 [Example 1, (R)-3-(3-(methyl(7H-pyrrolo[2,3-d]pyrimidine-4-yl)amino)pyrrolidine-1-yl)-3-oxopropanenitrile]	97%	70%	20%	–	–
CN(c1ncnc2[nH]ccc12)[C@@H]1CCN(CCC#N)C1 [Example 2, (R)-3-(3-(methyl(7H-pyrrolo[2,3-d]pyrimidine-4-yl)amino)pyrrolidine-1-yl)propanenitrile]	91%	42%	39%	2.17	58%
CCCCN1CC[C@@H](N(C)c2ncnc3[nH]ccc23)C1 [Example 3, (R)—N-(1-butylpyrrolidine-3-yl)-N-methyl-7H-pyrrolo[2,3-d]pyrimidine-4-amine]	52%	6%	4%	∞	8%
CN(c1ncnc2[nH]ccc12)[C@@H]1CCN(C(=O)CN=[N+]=[N-])C1 [Example 4, (R)-2-azido-1-(3-(methyl(7H-pyrrolo[2,3-d]pyrimidine-4-yl)amino)pyrrolidine-1-yl)ethane-1-one]	98%	79%	33%	1.24	86%
CC(C)CC(=O)N1CC[C@@H](N(C)c2ncnc3[nH]ccc23)C1 [Example 5, (R)-3-methyl-1-(3-(methyl(7H-pyrrolo[2,3-d]pyrimidine-4-yl)amino)pyrrolidine-1-yl)butane-1-one]	93%	13%	10%	7.15	63%
CC(C)COC(=O)N1CC[C@@H](N(C)c2ncnc3[nH]ccc23)C1 [Example 6, Isobutyl (R)-3-(methyl(7H-pyrrolo[2,3-d]pyrimidine-4-yl)amino)pyrrolidine-1-carboxylate]	93%	9%	9%	10.33	34%
CN(c1ncnc2[nH]ccc12)[C@@H]1CCN(C(=O)Nc2ccccc2)C1 [Example 7, (R)-3-(methyl(7H-pyrrolo[2,3-d]pyrimidine-4-yl)amino)-N-phenylpyrrolidine-1-carboxamide]	97%	68%	42%	1.43	72%
CN(c1ncnc2[nH]ccc12)[C@@H]1CCN(S(=O)(=O)c2ccccc2)C1 [Example 14, (R)—N-methyl-N-(1-(phenylsulfonyl)pyrrolidine-3-yl)-7H-pyrrolo[2,3-d]pyrimidine-4-amine]	99%	69%	17%	1.43	91%
CN(c1ncnc2[nH]ccc12)[C@@H]1CCN(S(=O)(=O)c2ccccc2F)C1 [Example 15, (R)—N-(1-((2-fluorophenyl)sulfonyl)pyrrolidine-3-yl)-N-methyl-7H-pyrrolo[2,3-d]pyrimidine-4-amine]	98%	66%	25%	1.48	92%
CN(c1ncnc2[nH]ccc12)[C@@H]1CCN(S(=O)(=O)c2cccc(F)c2)C1 [Example 16, (R)—N-(1-((3-fluorophenyl)sulfonyl)pyrrolidine-3-yl)-N-methyl-7H-pyrrolo[2,3-d]pyrimidine-4-amine]	98%	93%	47%	1.05	98%
CN(c1ncnc2[nH]ccc12)[C@@H]1CCN(S(=O)(=O)c2ccccc2C#N)C1 [Example 18, (R)-2-((3-(methyl(7H-pyrrolo[2,3-d]pyrimidine-4-yl)amino)pyrrolidine-1-yl)sulfonyl)benzonitrile]	97%	73%	22%	1.33	81%
CN(c1ncnc2[nH]ccc12)[C@@H]1CCN(S(=O)(=O)c2cccc(C#N)c2)C1 [Example 19, (R)-3-((3-(methyl(7H-pyrrolo[2,3-d]pyrimidine-4-yl)amino)pyrrolidine-1-yl)sulfonyl)benzonitrile]	99%	81%	42%	1.22	95%
CN(c1ncnc2[nH]ccc12)[C@@H]1CCN(S(=O)(=O)c2ccc(C#N)cc2)C1 [Example 20, (R)-4-((3-(methyl(7H-pyrrolo[2,3-d]pyrimidine-4-yl)amino)pyrrolidine-1-yl)sulfonyl)benzonitrile]	97%	46%	9%	2.11	84%
CN(c1ncnc2[nH]ccc12)[C@H]1CCN(C(=O)CC#N)C1 [Example 31, (S)-3-(3-(methyl(7H-pyrrolo[2,3-d]pyrimidine-4-yl)amino)pyrrolidine-1-yl)-3-oxopropanenitrile]	23%	-6%	27%	–	–

Further lines, results first:

inhibition at 1 µM [1]	inhibition at 1 µM [2]	inhibition at 1 µM [3]	JAK1/JAK2 [1]	inhibition at 1 µM [4]	Compound
91%	7%	21%	13.00	59%	CN(c1ncnc2[nH]ccc12)[C@@H]1CCN(S(C)(=O)=O)C1 [Example 8, (R)—N-methyl-N-(1-(methylsulfonyl)pyrrolidine-3-yl)-7H-pyrrolo[2,3-d]pyrimidine-4-amine]
90%	9%	11%	10.00	59%	CN(c1ncnc2[nH]ccc12)[C@@H]1CCN(S(=O)(=O)C(F)(F)F)C1 [Example 9, (R)—N-methyl-N-(1-((trifluoromethyl)sulfonyl)pyrrolidine-3-yl)-7H-pyrrolo[2,3-d]pyrimidine-4-amine]
94%	27%	22%	3.48	74%	CCS(=O)(=O)N1CC[C@@H](N(C)c2ncnc3[nH]ccc23)C1 [Example 10, (R)—N-(1-(ethylsulfonyl)pyrrolidine-3-yl)-N-methyl-7H-pyrrolo[2,3-d]pyrimidine-4-amine]
95%	62%	20%	1.55	78%	CCCS(=O)(=O)N1CC[C@@H](N(C)c2ncnc3[nH]ccc23)C1 [Example 11, (R)—N-methyl-N-(1-(propylsulfonyl)pyrrolidine-3-yl)-7H-pyrrolo[2,3-d]pyrimidine-4-amine]
86%	11%	13%	7.82	47%	CC(C)S(=O)(=O)N1CC[C@@H](N(C)c2ncnc3[nH]ccc23)C1 [Example 12, (R)—N-(1-(isopropylsulfonyl)pyrrolidine-3-yl)-N-methyl-7H-pyrrolo[2,3-d]pyrimidine-4-amine]
52%	9%	4%	5.78	17%	CN(c1ncnc2[nH]ccc12)[C@@H]1CCN(S(=O)(=O)c2cn(C)cn2)C1 [Example 13, (R)—N-methyl-N-(1-((1-methyl-1H-imidazole-4-yl)sulfonyl)pyrrolidine-3-yl)-7H-pyrrolo[2,3-d]pyrimidine-4-amine]
99%	81%	29%	1.22	92%	CN(c1ncnc2[nH]ccc12)[C@@H]1CCN(S(=O)(=O)c2ccc(F)cc2)C1 [Example 17, (R)—N-(1-((4-fluorophenyl)sulfonyl)pyrrolidine-3-yl)-N-methyl-7H-pyrrolo[2,3-d]pyrimidine-4-amine]

Reference: patent US10407430B2, “Janus kinase 1 selective inhibitor and pharmaceutical use thereof” (YANG JI CHEMICAL CO., LTD., priority 2015, dated 2019)
